Assay [1] concerns the target T1, MadB (Shewanella oneidensis, UniProt Q8E989, D79A).
T1 construct: gene yiiD
Put plainly: malonyl-CoA decarboxylase assay, HPLC. It counts as biochemical. Particulars: 4 mM malonyl-CoA, 0.1 M Tris pH 7, 0.2 M NaCl, 37 °C.

For assay [2], the target named is T2, MadB (Shewanella oneidensis, UniProt Q8E989, S54A).
T2 construct: gene yiiD
Put plainly: malonyl-CoA decarboxylase assay, HPLC. Particulars: 4 mM malonyl-CoA, 0.1 M Tris pH 7, 0.2 M NaCl, 37 °C. It counts as biochemical.

A further assay deals with T3, MadA^C (Escherichia coli, UniProt P0ADQ2).
T3 construct: gene fabY; C-terminal hot dog domain, residues 171-329, His6-tag cleaved by thrombin, dimer; expressed in E. coli BL21(DE3)
Put plainly: malonyl-CoA decarboxylase assay, HPLC. The class given is biochemical. The note with it: 0.1 M Tris pH 7, 0.2 M NaCl, 37 °C; given for the Mad proteins collectively.

A further assay deals with T4, MadA (Escherichia coli, UniProt P0ADQ2, M17A).
T4 construct: gene fabY; full-length GNAT-hot dog protein, dimer, pET28a His-tag, M17A to remove second start site; expressed in E. coli BL21(DE3)
Put plainly: malonyl-CoA decarboxylase assay, HPLC. The class given is biochemical. The note with it: 0.1 M Tris pH 7, 0.2 M NaCl, 37 °C; given for the Mad proteins collectively.

In assay [3] the target is T5, MadB (Shewanella oneidensis, UniProt Q8E989).
T5 construct: gene yiiD
T5 sequence (Q8E989 1-145): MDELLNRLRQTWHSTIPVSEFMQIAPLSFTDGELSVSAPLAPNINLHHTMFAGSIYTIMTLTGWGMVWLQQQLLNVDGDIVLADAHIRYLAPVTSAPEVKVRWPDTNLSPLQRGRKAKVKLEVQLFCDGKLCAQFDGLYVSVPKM
Put plainly: malonyl-CoA decarboxylase assay, HPLC. The class given is biochemical. The note with it: 0.1 M Tris pH 7, 0.2 M NaCl, 37 °C; given for the Mad proteins collectively.

For another assay, the target named is T6, GlmU (Escherichia coli, UniProt P0ACC7).
T6 construct: full-length in pET28a, His-tag kept; expressed in E. coli BL21(DE3)
Put plainly: surface plasmon resonance, immobilised His-tagged GlmU, […] equilibrium affinity. The note with it: read-out: equilibrium dissociation constant. It counts as binding.

The structures appear in SMILES notation. A value given as a limit tells only on which side of the number the result lay.

T3 sequence (P0ADQ2 171-329): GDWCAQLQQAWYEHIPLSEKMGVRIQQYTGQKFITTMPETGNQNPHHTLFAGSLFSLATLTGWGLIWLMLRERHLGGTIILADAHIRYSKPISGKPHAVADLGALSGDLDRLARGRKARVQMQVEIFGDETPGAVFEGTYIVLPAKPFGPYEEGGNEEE
T1 sequence (Q8E989 entry or part of it D79A): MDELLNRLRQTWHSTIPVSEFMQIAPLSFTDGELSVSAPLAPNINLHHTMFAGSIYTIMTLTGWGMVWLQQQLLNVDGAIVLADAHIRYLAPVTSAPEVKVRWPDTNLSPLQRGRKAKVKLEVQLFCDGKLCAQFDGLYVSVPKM
T2 sequence (Q8E989 entry or part of it S54A): as the sequence (Q8E989 entry or part of it D79A) above, with S54A, A79D counted along it
T6 sequence (P0ACC7 whole entry): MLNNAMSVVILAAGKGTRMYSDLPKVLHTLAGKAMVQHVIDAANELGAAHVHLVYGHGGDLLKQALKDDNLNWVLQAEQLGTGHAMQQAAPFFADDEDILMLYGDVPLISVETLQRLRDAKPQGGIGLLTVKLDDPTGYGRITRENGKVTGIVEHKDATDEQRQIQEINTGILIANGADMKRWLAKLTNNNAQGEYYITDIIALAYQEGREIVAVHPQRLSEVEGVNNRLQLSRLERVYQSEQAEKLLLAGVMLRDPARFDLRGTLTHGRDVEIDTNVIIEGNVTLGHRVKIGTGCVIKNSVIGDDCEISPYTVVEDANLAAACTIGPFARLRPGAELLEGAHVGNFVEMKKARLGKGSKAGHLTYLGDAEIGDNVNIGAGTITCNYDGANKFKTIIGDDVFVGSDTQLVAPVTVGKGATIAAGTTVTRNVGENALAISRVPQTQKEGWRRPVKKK
T4 sequence (P0ADQ2 whole entry M17A): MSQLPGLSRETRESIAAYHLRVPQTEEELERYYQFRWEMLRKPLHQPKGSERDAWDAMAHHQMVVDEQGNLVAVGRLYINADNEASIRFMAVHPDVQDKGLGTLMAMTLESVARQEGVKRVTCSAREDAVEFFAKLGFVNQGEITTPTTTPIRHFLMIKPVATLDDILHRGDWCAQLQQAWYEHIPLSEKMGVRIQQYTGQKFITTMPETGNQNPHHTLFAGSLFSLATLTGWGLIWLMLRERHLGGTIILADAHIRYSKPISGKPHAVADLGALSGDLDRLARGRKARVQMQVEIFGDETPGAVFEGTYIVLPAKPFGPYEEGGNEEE

With `CC(C)(COP(=O)(O)OP(=O)(O)OC[C@H]1O[C@@H](n2cnc3c(N)ncnc32)[C@H](O)[C@@H]1OP(=O)(O)O)[C@@H](O)C(=O)NCCC(=O)NCCSC(=O)CC(=O)O` [malonyl-CoA], the “malonyl-CoA decarboxylase assay, HPLC” value on MadB [1] was “The MadB(S54A) and MadB(D79A) mutants had nearly normal malonyl-CoA decarboxylase activity”; at MadB [2], “The MadB(S54A) and MadB(D79A) mutants had nearly normal malonyl-CoA decarboxylase activity”. Further, the Km at MadA^C, at MadA and at MadB [3] was over 5 mM throughout.
As to `CC(=O)SCCNC(=O)CCNC(=O)[C@H](O)C(C)(C)COP(=O)(O)OP(=O)(O)OC[C@H]1O[C@@H](n2cnc3c(N)ncnc32)[C@H](O)[C@@H]1OP(=O)(O)O` [acetyl-CoA], the Kd at GlmU is 967 ± 48.3 µM.
